Results on seven compounds are retold here after ChEMBL document CHEMBL5244279, “Perspectives on SARS-CoV-2 Main Protease Inhibitors” (J Med Chem, 2021).

Data set [1] is described as follows: Inhibition of SARS CoV Main protease using MCA-AVLQSGFR-Lys(DNP)-Lys-NH2 peptide as substrate by fluorescence based analysis. Also noted: species or system Severe acute respiratory syndrome-related coronavirus.
Data set [2] is described as follows: Binding affinity to SARS CoV Main protease incubated for 20 mins by reverse-phase HPLC analysis. Also noted: species or system Severe acute respiratory syndrome-related coronavirus.
Data set [3] has as its target Replicase polyprotein 1ab (Severe acute respiratory syndrome coronavirus 2, UniProt P0DTD1). Description: Inhibition of SARS CoV-2 Main protease using MCA-AVLQSGFR-Lys(DNP)-Lys-NH2 peptide as substrate by fluorescence based analysis.
The nature of data set [4]: Inhibition of SARS CoV Main protease using 2-aminobenzoyl-SVTLQSG-Tyr(NO2)-R peptide as substrate by FRET assay. Also on record: species or system Severe acute respiratory syndrome-related coronavirus.
Data set [5] in a line: Cytotoxicity against African green monkey Vero E6 cells assessed as reduction of cell viability by CellTiterGlo assay. The format is toxicity, cell-based, Vero C1008. The note with it: chlorocebus sabaeus. (In ATP-based viability assays light output follows the ATP content of the culture.)
Data set [6] in a line: Cytotoxicity against human Huh-7 cells assessed as reduction of cell viability. Type of data set: toxicity, cell-based.
The nature of data set [7]: Cytotoxicity against cat CRFK cells assessed as reduction of cell viability. The format is toxicity, cell-based, Felis catus.
The nature of data set [8]: Cytotoxicity against mouse L929 cells assessed as reduction of cell viability. Type of data set: toxicity, cell-based.
A short description of data set [9]: Half life in Sprague-Dawley rat at 10 mg/kg, iv measured upto 24 hrs by LC-MS/MS analysis. The format is ADME, organism-based. As to conditions: in vivo.
A short description of data set [10]: Half life in Beagle dog at 5 mg/kg, iv measured upto 24 hrs by LC-MS/MS analysis. The format is ADME, organism-based, Canis lupus familiaris. As to conditions: in vivo.
Data set [11] is described as follows: Clearance in Sprague-Dawley rat at 10 mg/kg, iv measured upto 24 hrs by LC-MS/MS analysis. The format is ADME, organism-based. The note with it: in vivo.
The nature of data set [12]: Clearance in Beagle dog at 5 mg/kg, iv measured upto 24 hrs by LC-MS/MS analysis. As to conditions: in vivo. Type of data set: ADME, organism-based, Canis lupus familiaris.
The nature of data set [13]: AUC in Sprague-Dawley rat at 10 mg/kg, iv measured upto 24 hrs by LC-MS/MS analysis. Type of data set: ADME, organism-based. Also noted: time < 24 hrs, dose 10 mg/kg, route iv. As to conditions: in vivo.
Data set [14] is described as follows: AUC in Beagle dog at 5 mg/kg, iv measured upto 24 hrs by LC-MS/MS analysis. Type of data set: ADME, organism-based, Canis lupus familiaris. Also noted: time < 24 hrs, dose 5 mg/kg, route iv. The note with it: in vivo.
A short description of data set [15]: Binding affinity to SARS CoV Main protease incubated for 10 mins by FRET assay. Also noted: species or system Severe acute respiratory syndrome-related coronavirus.
Data set [16] can be described thus: Cytotoxicity against African green monkey Vero E6 cells assessed as reduction of cell viability by CCK8 assay. Type of data set: toxicity, cell-based, Vero C1008. As to conditions: chlorocebus sabaeus.
Data set [17] relates to SARS-CoV. Description: microbe, parasite or virus in culture. As to conditions: Severe acute respiratory syndrome-related coronavirus, Vero C1008, 48 h.
Data set [18] in a line: Inhibition of SARS CoV Main protease using Dabcyl-KTSAVLQSGFRKM-E(Edans)-NH2 peptide as substrate by FRET assay. Also noted: species or system Severe acute respiratory syndrome-related coronavirus.
Data set [19] can be described thus: Mean residence time in mouse at 20 mg/kg, sc. The format is ADME, organism-based. As to conditions: in vivo.
Data set [20] in a line: Half life in mouse at 20 mg/kg, sc. Type of data set: ADME, organism-based. The note with it: in vivo.
Data set [21] in a line: Drug concentration in mouse lung at 20 mg/kg, sc. The format is ADME, organism-based. The note with it: in vivo.
Data set [22] in a line: Toxicity in rat assessed as median lethal dose. The note with it: in vivo, read-out: MLD.
For another data set, the system named is SARS-CoV-2. Description: Antiviral activity against SARS CoV-2 assessed as inhibition of viral growth. The format is functional, organism-based. The note with it: Severe acute respiratory syndrome coronavirus 2.
Data set [23] concerns SARS-CoV. Type of data set: functional, organism-based, Vero E6. The note with it: Severe acute respiratory syndrome-related coronavirus, 2019-nCoV/USA_WA1/2020, Vero C1008, 72 h.
Data set [24] is described as follows: Cytotoxicity against African green monkey Vero E6 cells assessed as reduction of cell viability by XTT assay. The format is toxicity, cell-based, Vero C1008. The note with it: chlorocebus sabaeus. (Formazan colour is commonly taken as a measure of viable cells.)

Each structure is given as a SMILES string.

`CCOC(=O)/C=C/[C@H](C[C@@H]1CCNC1=O)NC(=O)[C@H](CC(C)C)NC(=O)[C@@H](NC(=O)OCc1ccccc1)C(C)C` had an IC50 in data set [1] of 9.1 µM. This compound showed a Ki in [2] of 0.52 µM.

`O=C(Oc1cncc(Cl)c1)c1cccs1`: the IC50 in [3] is 0.081 µM; in data set [4], 0.5 µM.

Take `O=C[C@H](C[C@@H]1CCNC1=O)NC(=O)[C@H](Cc1cccc(F)c1)NC(=O)c1cc2ccccc2[nH]1`: the CC50 in [5], in data set [6], in [7] and in data set [8] was greater than 100 µM in each case. Moreover, the half-life in [9] is 7.6 h; in data set [10] it was 5.5 h. Further, the clearance in [11] stood at 4.01 mL/min; in data set [12] it was 5.8 mL/min. Moreover, the AUC at 24 h in data set [13] was determined as 41500 ng·h/mL; in [14], 14900 ng·h/mL.

On to `C[C@@H](OC(C)(C)C)[C@H](NC(=O)OCc1ccccc1)C(=O)N[C@@H](CC1CCCCC1)C(=O)N[C@H](C=O)C[C@@H]1CCNC1=O`, for which, in [15], the Ki came to 0.053 µM. For the same compound, the CC50 in data set [16] is greater than 200 µM. In addition, it took 0.6 µM to reach a half-maximal effect in the data set on SARS-CoV [17] (EC50).

`CC(C)(C)OC(=O)Nc1cccn([C@@H](CC2CC2)C(=O)N[C@@H](C[C@@H]2CCNC2=O)C(=O)C(=O)NCc2ccccc2)c1=O` came in with an IC50 in [18] of 0.9 µM. In [19], this compound returned an MRT of 2.7 h. For the same compound, in data set [20], the half-life is 1.8 h. For the same compound, the Ct in data set [21] is recorded as 13 ng/g.

In data set [3], `O=c1c2ccccc2[se]n1Cc1ccco1` displayed an IC50 of 0.074 µM and a Ki of 0.031 µM. Further, the LD50 in [22] was greater than 4600 mg/kg. For the same compound, the EC50 in the data set with SARS-CoV-2 was 4.67 µM.

In [2], `CCOC(=O)/C=C/[C@H](Cc1ccccc1)NC(=O)[C@H](Cc1ccccc1)NC(=O)/C=C\c1ccc(N(C)C)cc1` gave a Ki of 0.66 µM. In the data set on SARS-CoV [23], this compound yielded an EC50 of 18 µM. Further, the CC50 in data set [24] is greater than 200 µM.

The term IC50 denotes the concentration at which inhibition is half-maximal. A word on the Ki: it is the equilibrium dissociation constant of an inhibitor or competing ligand from its target. Usually CC50 stands for the concentration at which the toxic effect on the cells reaches its halfway point. What is called half-life is how long it takes for the measured level to halve. As usually defined, the clearance is the volume of plasma or blood freed of the substance per unit of time. By AUC is commonly meant the area under the concentration-time curve, a measure of exposure. As a reminder, the EC50 is the concentration that produces a half-maximal response. Broadly, the MRT is the average time that molecules of a dose stay in the body.
